Results taken from patent US20150374673A1, “Combination Therapy for the Treatment of Nosocomial Pneumonia” (priority 2013, published 2015).

What was measured:
E. coli = assay: MIC, CLSI broth microdilution in CAMHB with 0-10% pulmonary surfactant (avibactam fixed at 4 μg/mL in combination); assay type: cell-based; conditions: Escherichia coli
Description: (§1) The bacterial strains used in this testing were part of the microbiological culture collection housed at AstraZeneca R&D Boston (AstraZeneca Research Collection, designated ARC). The panel of bacterial isolates used for this testing was comprised of five CLSI QC reference strains and the remainder were either recent clinical isolates expressing β-lactamases or isolates from the primary bacterial screening panels.
(§2) MIC values were determined using the CLSI broth microdilution methodology with slight variation. Stock compound mother plates were prepared and used to spot 2 μL aliquots of serial 2-fold drug dilutions to columns 1-11 of 96-well daughter plates using a Perkin-Elmer MiniTrak™ MultiPosition dispenser. […] An inoculum volume of 100 μL (5×10E^5 CFU/mL) in CAMHB containing 0, 1, 2.5, 5, or 10% pulmonary surfactant was added using a multichannel Finnpipette® to each well of the 96-well plate.
(§3) The minimum inhibitory concentration (MIC) values against each organism/drug combination were determined using broth microdilution methodology according to CLSI guidelines. The recommended reference bacterial strains for each test group and reference compounds were incorporated into each test. For Gram-negatives, the reference bacterial strains were Escherichia coli ATCC 25922, E. coli ATCC 35218, Klebsiella pneumoniae ATCC 700603, and Pseudomonas aeruginosa ATCC 27853. Staphylococcus aureus ATCC 29213 was the reference bacterial strain for the Gram-positives.
(§4) MIC values for individual isolates were read visually. The MICs for each compound or combination in pulmonary surfactant was compared to the compound or combination tested in CAMHB alone.

K. pneumoniae = assay: as above; assay type: cell-based; conditions: Klebsiella pneumoniae
Description: as §1, §2, §3, §4

[1] = Serum and epithelial lining fluid (ELF) pharmacokinetics of ceftazidime-avibactam human simulated regimen in infected and uninfected mice; conditions: for fT > MIC: MIC 4, human simulated CAZ-AVI 2000-500 mg q8h 2 h infusion; for Kp at 16 h / Kp at 18.5 h / Kp at 22 h / Kp at 24 h: female, ICR, mouse, epithelial lining fluid (ELF) vs serum, ELF point Penetration Ratio, ELF vs serum, third dosing interval
Description: Pathogen-free, female ICR mice weighing approximately 25 g were acquired from Harlan Sprague Dawley, Inc. (Indianapolis, Ind.) and utilized throughout these experiments. Animals were maintained and used in accordance to National Research Council recommendations, and provided food and water ad libitum. Mice were rendered neutropenic with 100 and 250 mg/kg intraperitoneal injections of cyclophosphamide (Cytoxan®; Bristol-Myers Squibb, Princeton, N.J.) given one and four days prior to inoculation, respectively. Three days prior to inoculation, mice were also given a single 5 mg/kg intraperitoneal injection of uranyl nitrate. This produces a predictable degree of renal impairment to slow drug clearance. Two hours prior to the initiation of antimicrobial therapy, mice were lightly anesthetized using isofluorane (2.5% v/v in 100% oxygen carrier) until the respiratory rate decreased upon visual inspection. Pneumonia was induced by the instillation of 0.05 mL of a 10^7 CFU inoculum of the test isolate suspended in 3% mucin in normal saline. While the mouse is anesthetized, the inoculum is delivered into the animal's oral cavity, blocking the nares and holding the mouse in a vertical position. Aspiration of bacteria into the lungs occurred as the animals began to spontaneously respire.
In these studies, we utilized the previously determined dosing regimen described above. Confirmatory serum pharmacokinetic studies were undertaken in infected mice. For these studies, infected neutropenic mice were dosed with the above calculated regimen and groups of six mice ? were euthanized at multiple time points throughout a 24 h period to confirm target exposures blood was collected via cardiac puncture and the serum samples were stored at −80° C. until analysis. Pharmacokinetic studies were undertaken to describe the epithelial lining fluid concentrations in infected mice. For these studies, infected neutropenic mice were dosed with the above calculated regimen and groups of six mice were euthanized at multiple time points throughout the third dosing period (i.e. 16-24 h). Once euthanized, serum and BAL samples were collected as described above. Serum and BAL samples were stored at −80° C. until analysis.

NC(=O)[C@@H]1CC[C@@H]2CN1C(=O)N2OS(=O)(=O)[O-].[Na+] [avibactam, [(2S,5R)-2-carbamoyl-7-oxo-1,6-diazabicyclo[3.2.1]octan-6-yl]hydrogen sulfate]
MIC (E. coli; ATCC25922, E. coli ARC4 (CLSI QC strain, ATCC 25922), surfactant 0%): 32 µg/mL | MIC (E. coli; ATCC25922, E. coli ARC4 (CLSI QC strain, ATCC 25922), surfactant 1%): 32 µg/mL | MIC (E. coli; ATCC25922, E. coli ARC4 (CLSI QC strain, ATCC 25922), surfactant 2.5%): 32 µg/mL | MIC (E. coli; ATCC25922, E. coli ARC4 (CLSI QC strain, ATCC 25922), surfactant 5%): 16 µg/mL | MIC (E. coli; ATCC25922, E. coli ARC4 (CLSI QC strain, ATCC 25922), surfactant 10%): 16 µg/mL | MIC (E. coli; ATCC35218, E. coli ARC016 (ATCC 35218, TEM-1), surfactant 0%): 16 µg/mL | MIC (E. coli; ATCC35218, E. coli ARC016 (ATCC 35218, TEM-1), surfactant 1%): 16 µg/mL | MIC (E. coli; ATCC35218, E. coli ARC016 (ATCC 35218, TEM-1), surfactant 2.5%): 16 µg/mL | MIC (E. coli; ATCC35218, E. coli ARC016 (ATCC 35218, TEM-1), surfactant 5%): 16 µg/mL | MIC (E. coli; ATCC35218, E. coli ARC016 (ATCC 35218, TEM-1), surfactant 10%): 16 µg/mL | MIC (E. coli; E. coli ARC523 (W3110), surfactant 0%): > 64 µg/mL | MIC (E. coli; E. coli ARC523 (W3110), surfactant 1%): > 64 µg/mL | MIC (E. coli; E. coli ARC523 (W3110), surfactant 2.5%): > 64 µg/mL | MIC (E. coli; E. coli ARC523 (W3110), surfactant 5%): > 64 µg/mL | MIC (E. coli; E. coli ARC523 (W3110), surfactant 10%): > 64 µg/mL | MIC (E. coli; E. coli ARC3666 (CTX-M-15, OXA-1/30, SHV-31, TEM-1), surfactant 0%): 8 µg/mL | MIC (E. coli; E. coli ARC3666 (CTX-M-15, OXA-1/30, SHV-31, TEM-1), surfactant 1%): 8 µg/mL | MIC (E. coli; E. coli ARC3666 (CTX-M-15, OXA-1/30, SHV-31, TEM-1), surfactant 2.5%): 8 µg/mL | MIC (E. coli; E. coli ARC3666 (CTX-M-15, OXA-1/30, SHV-31, TEM-1), surfactant 5%): 8 µg/mL | MIC (E. coli; E. coli ARC3666 (CTX-M-15, OXA-1/30, SHV-31, TEM-1), surfactant 10%): 8 µg/mL | MIC (E. coli; E. coli ARC3690 (CTX-M-15, SHV-12), surfactant 0%): 16 µg/mL | MIC (E. coli; E. coli ARC3690 (CTX-M-15, SHV-12), surfactant 1%): 16 µg/mL | MIC (E. coli; E. coli ARC3690 (CTX-M-15, SHV-12), surfactant 2.5%): 16 µg/mL | MIC (E. coli; E. coli ARC3690 (CTX-M-15, SHV-12), surfactant 5%): 16 µg/mL | MIC (E. coli; E. coli ARC3690 (CTX-M-15, SHV-12), surfactant 10%): 16 µg/mL | MIC (K. pneumoniae; ATCC700603, K. pneumoniae ARC561 (ATCC 700603; SHV-18, OXA-2, OKP-6), surfactant 0%): > 64 µg/mL | MIC (K. pneumoniae; ATCC700603, K. pneumoniae ARC561 (ATCC 700603; SHV-18, OXA-2, OKP-6), surfactant 1%): > 64 µg/mL | MIC (K. pneumoniae; ATCC700603, K. pneumoniae ARC561 (ATCC 700603; SHV-18, OXA-2, OKP-6), surfactant 2.5%): > 64 µg/mL | MIC (K. pneumoniae; ATCC700603, K. pneumoniae ARC561 (ATCC 700603; SHV-18, OXA-2, OKP-6), surfactant 5%): 64 µg/mL | MIC (K. pneumoniae; ATCC700603, K. pneumoniae ARC561 (ATCC 700603; SHV-18, OXA-2, OKP-6), surfactant 10%): 64 µg/mL | MIC (K. pneumoniae; K. pneumoniae ARC1865 (Primary Screening Panel), surfactant 1%): > 64 µg/mL | MIC (K. pneumoniae; K. pneumoniae ARC1865 (Primary Screening Panel), surfactant 2.5%): 64 µg/mL | MIC (K. pneumoniae; K. pneumoniae ARC1865 (Primary Screening Panel), surfactant 5%): > 64 µg/mL | MIC (K. pneumoniae; K. pneumoniae ARC1865 (Primary Screening Panel), surfactant 10%): > 64 µg/mL | MIC (K. pneumoniae; K. pneumoniae ARC1865 (Primary Screening Panel), surfactant concentration cell empty): > 64 µg/mL | MIC (K. pneumoniae; K. pneumoniae ARC2528 (Clinical isolate), surfactant 0%): 64 µg/mL | MIC (K. pneumoniae; K. pneumoniae ARC2528 (Clinical isolate), surfactant 1%): 64 µg/mL | MIC (K. pneumoniae; K. pneumoniae ARC2528 (Clinical isolate), surfactant 2.5%): 64 µg/mL | MIC (K. pneumoniae; K. pneumoniae ARC2528 (Clinical isolate), surfactant 5%): 64 µg/mL | MIC (K. pneumoniae; K. pneumoniae ARC2528 (Clinical isolate), surfactant 10%): 32 µg/mL | MIC (K. pneumoniae; K. pneumoniae ARC2929 (KPC-3), surfactant 0%): 8 µg/mL | MIC (K. pneumoniae; K. pneumoniae ARC2929 (KPC-3), surfactant 1%): 8 µg/mL | MIC (K. pneumoniae; K. pneumoniae ARC2929 (KPC-3), surfactant 2.5%): 8 µg/mL | MIC (K. pneumoniae; K. pneumoniae ARC2929 (KPC-3), surfactant 5%): 8 µg/mL | MIC (K. pneumoniae; K. pneumoniae ARC2929 (KPC-3), surfactant 10%): 8 µg/mL | MIC (K. pneumoniae; K. pneumoniae ARC2945 (KPC-2, SHV-11, TEM-1, OXA-9), surfactant 0%): 8 µg/mL | MIC (K. pneumoniae; K. pneumoniae ARC2945 (KPC-2, SHV-11, TEM-1, OXA-9), surfactant 1%): 8 µg/mL | MIC (K. pneumoniae; K. pneumoniae ARC2945 (KPC-2, SHV-11, TEM-1, OXA-9), surfactant 2.5%): 8 µg/mL | MIC (K. pneumoniae; K. pneumoniae ARC2945 (KPC-2, SHV-11, TEM-1, OXA-9), surfactant 5%): 8 µg/mL | MIC (K. pneumoniae; K. pneumoniae ARC2945 (KPC-2, SHV-11, TEM-1, OXA-9), surfactant 10%): 8 µg/mL | MIC (K. pneumoniae; K. pneumoniae ARC3713 (CTX-M-15, OXA-1/30, SHV-5, TEM-1), surfactant 0%): 16 µg/mL | MIC (K. pneumoniae; K. pneumoniae ARC3713 (CTX-M-15, OXA-1/30, SHV-5, TEM-1), surfactant 1%): 16 µg/mL | MIC (K. pneumoniae; K. pneumoniae ARC3713 (CTX-M-15, OXA-1/30, SHV-5, TEM-1), surfactant 2.5%): 16 µg/mL | MIC (K. pneumoniae; K. pneumoniae ARC3713 (CTX-M-15, OXA-1/30, SHV-5, TEM-1), surfactant 5%): 16 µg/mL | MIC (K. pneumoniae; K. pneumoniae ARC3713 (CTX-M-15, OXA-1/30, SHV-5, TEM-1), surfactant 10%): 16 µg/mL | fT > MIC ([1]; ELF, infected mice): 3% | fT > MIC ([1]; ELF, uninfected mice): 19% | fT > MIC ([1]; Serum, infected mice): 34% | fT > MIC ([1]; Serum, uninfected mice): 19% | Kp at 16 h ([1]; infected mice): 0.59 | Kp at 18.5 h ([1]; infected mice): 0.66 | Kp at 22 h ([1]; infected mice): 0.69 | Kp at 24 h ([1]; infected mice): 0.8 | Kp at 16 h ([1]; uninfected mice): 0.86 | Kp at 18.5 h ([1]; uninfected mice): 0.74 | Kp at 22 h ([1]; uninfected mice): 0.93 | Kp at 24 h ([1]; uninfected mice): 0.95
